In experiment [1] the target is T1, Serine/threonine-protein phosphatase (Homo sapiens, UniProt Q9BPW0).
T1 sequence (Q9BPW0 whole entry): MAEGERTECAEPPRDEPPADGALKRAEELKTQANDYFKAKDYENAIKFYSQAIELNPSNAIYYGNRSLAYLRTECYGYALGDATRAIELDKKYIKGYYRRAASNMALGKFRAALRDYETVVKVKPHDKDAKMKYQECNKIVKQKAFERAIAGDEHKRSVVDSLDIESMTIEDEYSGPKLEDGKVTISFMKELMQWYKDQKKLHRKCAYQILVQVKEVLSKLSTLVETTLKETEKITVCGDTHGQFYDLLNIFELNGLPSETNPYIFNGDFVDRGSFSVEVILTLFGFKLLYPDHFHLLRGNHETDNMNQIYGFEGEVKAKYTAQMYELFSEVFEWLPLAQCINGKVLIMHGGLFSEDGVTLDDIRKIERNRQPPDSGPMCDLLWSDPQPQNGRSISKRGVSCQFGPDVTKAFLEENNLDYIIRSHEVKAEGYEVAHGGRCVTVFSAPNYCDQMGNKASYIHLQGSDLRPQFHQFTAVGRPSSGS
Put plainly: PP5 phosphatase inhibitors, dose response, biochemical, fluorescence (AID 2395).

A short description of experiment [2]: ARNT/TACC3 interaction disruptors, potency, confirmation, biochemical, AlphaScreen, cherry-picked samples (AID 651703).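 Further: His-tagged ARNT PAS-B domain paired with GST-TACC3 E629A dimer coactivator fragment; potency of inhibitors that break up the complex and lower AlphaScreen signal.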 The class given is functional, Homo sapiens. On the technique in general: In Alpha technology, singlet oxygen from a donor bead excites a nearby acceptor bead.
Experiment [3] has as its target T2, Tyrosine-protein phosphatase non-receptor type 22 (Homo sapiens, UniProt Q9Y2R2).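 Further: confirmatory dose-response retesting of primary uHTS hits against LYP; potency is for inhibition of phosphatase activity.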
T2 sequence (Q9Y2R2 whole entry): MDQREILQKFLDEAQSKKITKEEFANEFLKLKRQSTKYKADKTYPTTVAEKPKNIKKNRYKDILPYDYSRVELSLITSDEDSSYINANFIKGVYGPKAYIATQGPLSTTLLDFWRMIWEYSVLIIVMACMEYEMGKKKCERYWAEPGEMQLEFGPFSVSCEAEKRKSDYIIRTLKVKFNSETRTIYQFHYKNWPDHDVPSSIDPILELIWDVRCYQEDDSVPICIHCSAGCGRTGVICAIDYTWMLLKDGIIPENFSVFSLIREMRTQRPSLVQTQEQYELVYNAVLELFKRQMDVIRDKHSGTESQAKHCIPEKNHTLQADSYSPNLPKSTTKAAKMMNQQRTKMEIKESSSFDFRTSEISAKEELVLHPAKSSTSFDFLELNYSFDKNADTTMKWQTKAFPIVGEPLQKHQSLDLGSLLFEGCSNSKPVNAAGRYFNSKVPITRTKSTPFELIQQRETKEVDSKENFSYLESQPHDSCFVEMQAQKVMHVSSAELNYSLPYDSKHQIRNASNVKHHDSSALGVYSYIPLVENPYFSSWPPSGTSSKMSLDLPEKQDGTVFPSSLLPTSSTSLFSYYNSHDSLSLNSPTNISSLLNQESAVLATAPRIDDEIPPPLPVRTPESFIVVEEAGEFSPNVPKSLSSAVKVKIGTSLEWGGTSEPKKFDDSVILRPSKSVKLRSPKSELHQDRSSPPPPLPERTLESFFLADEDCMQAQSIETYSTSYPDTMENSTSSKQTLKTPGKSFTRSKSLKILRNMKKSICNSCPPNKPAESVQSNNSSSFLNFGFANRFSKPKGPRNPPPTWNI
The class given is functional.

Experiment [4] has as its target T3, Tyrosine-protein phosphatase non-receptor type 7 (Homo sapiens, UniProt P35236).
T3 sequence (P35236 whole entry): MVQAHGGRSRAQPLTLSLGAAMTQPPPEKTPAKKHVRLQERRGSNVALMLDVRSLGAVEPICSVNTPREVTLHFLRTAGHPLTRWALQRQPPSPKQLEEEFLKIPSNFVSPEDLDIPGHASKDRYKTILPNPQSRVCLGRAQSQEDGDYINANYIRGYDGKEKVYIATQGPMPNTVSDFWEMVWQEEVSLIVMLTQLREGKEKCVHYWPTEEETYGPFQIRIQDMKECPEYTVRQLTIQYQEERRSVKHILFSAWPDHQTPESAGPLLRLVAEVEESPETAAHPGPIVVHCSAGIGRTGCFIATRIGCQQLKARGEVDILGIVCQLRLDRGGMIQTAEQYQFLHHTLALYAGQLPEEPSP
The class given is functional.

In experiment [5] the target is Small ubiquitin-related modifier 1 (Homo sapiens, UniProt P63165). Put plainly: inhibitors of SUMO1 peptide binding, dose response, biochemical, fluorescence polarization, uHTS hits (AID 624382). It counts as functional. The following applies: read-out: IC50_Mean.
Experiment [6] concerns the target DNA (cytosine-5)-methyltransferase 1 (Homo sapiens, UniProt P26358). Put plainly: DNMT1 methyltransferase inhibitors, confirmation, biochemical, fluorescent molecular beacon (AID 602386). It counts as functional.
Experiment [7] deals with HEK293. In words: optical interference in Abeta FP readout, dose response, artefact control for IDE activator project, biochemical, fluorescence polarization (AID 588442). It counts as functional, cell-based. The following applies: Homo sapiens. (In general: Fluorescence polarisation rises when a labelled molecule tumbles more slowly, as on binding a larger partner.)
Experiment [8] concerns the target T4, Insulin-degrading enzyme (Homo sapiens, UniProt P14735).
T4 sequence (P14735 whole entry): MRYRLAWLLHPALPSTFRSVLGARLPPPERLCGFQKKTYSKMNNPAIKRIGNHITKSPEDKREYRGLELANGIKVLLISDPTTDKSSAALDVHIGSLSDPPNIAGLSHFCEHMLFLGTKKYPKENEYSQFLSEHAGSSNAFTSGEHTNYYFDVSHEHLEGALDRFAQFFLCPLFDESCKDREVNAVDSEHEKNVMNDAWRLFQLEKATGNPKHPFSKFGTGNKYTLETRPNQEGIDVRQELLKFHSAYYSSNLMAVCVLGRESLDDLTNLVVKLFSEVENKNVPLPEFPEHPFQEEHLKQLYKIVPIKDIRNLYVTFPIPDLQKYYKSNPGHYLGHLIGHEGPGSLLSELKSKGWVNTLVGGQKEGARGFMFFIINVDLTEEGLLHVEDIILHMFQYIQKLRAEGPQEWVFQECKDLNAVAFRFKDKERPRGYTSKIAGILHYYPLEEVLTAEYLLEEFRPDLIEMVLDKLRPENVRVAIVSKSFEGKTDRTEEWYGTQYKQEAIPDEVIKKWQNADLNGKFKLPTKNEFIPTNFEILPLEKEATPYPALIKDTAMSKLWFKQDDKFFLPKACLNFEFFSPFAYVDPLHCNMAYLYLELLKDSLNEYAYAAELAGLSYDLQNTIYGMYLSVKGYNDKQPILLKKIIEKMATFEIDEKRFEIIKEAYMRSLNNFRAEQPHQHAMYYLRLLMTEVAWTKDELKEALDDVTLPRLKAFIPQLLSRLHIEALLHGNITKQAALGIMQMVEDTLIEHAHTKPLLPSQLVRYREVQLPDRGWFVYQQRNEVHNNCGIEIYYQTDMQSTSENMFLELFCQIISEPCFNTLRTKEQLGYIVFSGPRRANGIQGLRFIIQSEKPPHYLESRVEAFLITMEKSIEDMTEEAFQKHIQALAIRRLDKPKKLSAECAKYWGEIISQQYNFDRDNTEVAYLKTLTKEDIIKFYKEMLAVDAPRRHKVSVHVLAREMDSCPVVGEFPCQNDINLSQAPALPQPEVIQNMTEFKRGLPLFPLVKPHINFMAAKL
In words: activators of endogenous IDE in HEK cells, dose response, cell-based, fluorescence polarization (AID 588439). It counts as functional.

Calls of active or inactive are those of the source.

Chain of Small ubiquitin-related modifier 1 (P63165 whole entry): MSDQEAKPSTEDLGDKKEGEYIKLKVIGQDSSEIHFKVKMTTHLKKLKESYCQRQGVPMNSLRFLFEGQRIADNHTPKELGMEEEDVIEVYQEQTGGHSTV
Chain of DNA (cytosine-5)-methyltransferase 1 (P26358 whole entry): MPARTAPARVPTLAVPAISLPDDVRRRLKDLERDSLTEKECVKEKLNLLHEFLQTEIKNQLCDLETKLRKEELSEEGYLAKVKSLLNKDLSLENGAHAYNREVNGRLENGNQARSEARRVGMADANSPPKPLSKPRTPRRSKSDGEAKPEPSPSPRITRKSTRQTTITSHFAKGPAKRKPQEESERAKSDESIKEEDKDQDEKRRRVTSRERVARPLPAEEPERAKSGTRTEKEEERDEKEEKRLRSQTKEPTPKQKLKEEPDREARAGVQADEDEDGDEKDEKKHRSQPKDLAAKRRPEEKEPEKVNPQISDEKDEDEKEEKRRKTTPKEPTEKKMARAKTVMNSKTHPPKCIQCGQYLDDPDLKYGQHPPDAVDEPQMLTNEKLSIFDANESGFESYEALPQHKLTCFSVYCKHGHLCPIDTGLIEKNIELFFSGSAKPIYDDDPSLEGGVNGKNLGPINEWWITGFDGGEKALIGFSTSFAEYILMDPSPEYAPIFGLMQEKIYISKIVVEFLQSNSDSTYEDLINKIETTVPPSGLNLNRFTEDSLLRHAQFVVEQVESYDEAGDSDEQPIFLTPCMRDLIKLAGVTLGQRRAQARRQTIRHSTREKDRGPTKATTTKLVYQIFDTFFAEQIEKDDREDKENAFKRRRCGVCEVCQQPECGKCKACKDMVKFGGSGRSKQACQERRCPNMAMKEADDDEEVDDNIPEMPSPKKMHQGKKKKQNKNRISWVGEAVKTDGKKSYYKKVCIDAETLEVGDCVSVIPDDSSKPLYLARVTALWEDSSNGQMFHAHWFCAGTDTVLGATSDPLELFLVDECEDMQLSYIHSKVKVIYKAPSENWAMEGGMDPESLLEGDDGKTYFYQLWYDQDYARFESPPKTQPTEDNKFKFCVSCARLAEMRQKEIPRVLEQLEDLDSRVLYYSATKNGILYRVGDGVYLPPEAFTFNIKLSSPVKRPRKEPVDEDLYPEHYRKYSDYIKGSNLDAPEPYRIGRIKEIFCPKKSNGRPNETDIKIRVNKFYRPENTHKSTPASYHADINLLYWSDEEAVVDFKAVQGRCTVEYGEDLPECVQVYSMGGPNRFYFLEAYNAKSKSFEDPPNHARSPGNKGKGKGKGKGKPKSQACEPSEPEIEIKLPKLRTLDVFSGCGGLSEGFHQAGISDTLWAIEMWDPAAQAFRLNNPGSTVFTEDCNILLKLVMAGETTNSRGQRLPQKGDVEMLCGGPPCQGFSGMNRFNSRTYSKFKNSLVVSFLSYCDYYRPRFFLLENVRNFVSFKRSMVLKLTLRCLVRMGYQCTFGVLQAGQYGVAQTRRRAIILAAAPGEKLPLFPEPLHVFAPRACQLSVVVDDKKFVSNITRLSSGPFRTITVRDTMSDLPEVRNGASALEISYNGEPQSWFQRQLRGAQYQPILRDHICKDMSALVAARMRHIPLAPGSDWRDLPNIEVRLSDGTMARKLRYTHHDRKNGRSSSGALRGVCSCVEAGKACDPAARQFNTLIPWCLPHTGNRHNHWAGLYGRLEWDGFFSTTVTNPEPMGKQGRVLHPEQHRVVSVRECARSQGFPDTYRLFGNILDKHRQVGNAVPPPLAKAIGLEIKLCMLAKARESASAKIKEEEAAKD

Consider `C=CCn1c(NC(=O)c2ccccc2Cl)c(C#N)c2nc3ccccc3nc21`, for which the IC50 in experiment [1] is > 7.45 µM (active).
Regarding `CCOC(=O)c1ccc(Nc2cc3ccccc3c(O)n2)cc1`, the AC50 (usually the concentration at which the activity in the assay is half-maximal) in experiment [2] is 84.2 µM (active).
Consider `CCOC(=O)c1sc2nc3c(SCC(=O)O)cc(C(=O)c4ccccc4O)cn3c(=O)c2c1C`, for which the IC50 is < 1.24 µM (active) in experiment [3], < 1.24 µM (active) in experiment [4], > 66.6 µM (inactive) in experiment [5] and 4.12 µM (active) in experiment [6].
As for `O=c1oc2c(O)cccc2cc1-c1nc2ccccc2[nH]1`, the EC50 in experiment [7] and in experiment [8] was > 54.7 µM (inactive) each time.

The values are drawn from ChEMBL document CHEMBL1201862, “PubChem BioAssay data set” (2004).
